Target: FXR ligand binding domain (Homo sapiens (Human), UniProt Q96RI1)
Experiment: Mammalian one hybrid (M1H) Gal4 reporter gene assay in HEK293 cells
Assay type: cell-based
Conditions: Gal4-FXR-LBD luciferase reporter, 16 h incubation
Protocol: Determination of a ligand mediated Gal4 promoter driven transactivation to quantify ligand binding mediated activation of FXR was performed as follows: The cDNA part encoding the FXR ligand binding domain was cloned into vector pCMV-BD (Stratagene) as a fusion to the yeast GAL4 DNA binding domain under the control of the CMV promoter. The amino acid boundaries of the ligand binding domain were amino acids 187-472 of Database entry NM_005123 (RefSeq). The plasmid pFR-Luc (Stratagene) was used as the reporter plasmid, containing a synthetic promoter with five tandem repeats of the yeast GAL4 binding sites, driving the expression of the Photinus pyralis (American firefly) luciferase gene as the reporter gene. In order to improve experimental accuracy the plasmid pRL-CMV (Promega) was cotransfected. pRL-CMV contains the constitutive CMV promoter, controlling the expression of the Renilla reniformis luciferase. […] Cells were incubated for additional 16 h before firefly and renilla luciferase activities were measured sequentially in the same cell extract using a Dual-Light-Luciferase-Assay system (Dyer et al., Anal. Biochem. 2000, 282, 158-161). […]

Chain of FXR ligand binding domain (Q96RI1 other isoform, or with tags, fused parts or gaps): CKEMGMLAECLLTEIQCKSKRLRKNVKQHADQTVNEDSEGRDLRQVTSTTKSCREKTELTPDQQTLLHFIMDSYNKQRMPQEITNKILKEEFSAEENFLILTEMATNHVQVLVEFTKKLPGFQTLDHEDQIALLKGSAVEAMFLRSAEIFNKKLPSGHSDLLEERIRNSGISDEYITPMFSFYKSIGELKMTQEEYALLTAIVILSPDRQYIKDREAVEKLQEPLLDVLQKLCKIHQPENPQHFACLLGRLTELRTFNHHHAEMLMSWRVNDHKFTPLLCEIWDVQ

| SMILES | EC50 [nM] |
| --- | --- |
| O=C(O)c1cc(F)c2nc(C3(O)C4COCC3CC(OCc3c(-c5c(Cl)cccc5Cl)noc3C3CC3)C4)sc2c1 [Example 1, 2-((1R,5S,9S)-7-((5-Cyclopropyl-3-(2,6-dichlorophenyl)isoxazol-4-yl)methoxy)-9-hydroxy-3-oxabicyclo[3.3.1]nonan-9-yl)-4-fluorobenzo[d]thiazole-6-carboxylic acid] | 216 |
| O=C(O)c1ccc2nc(C3(O)C4COCC3CC(OCc3c(-c5c(Cl)cccc5Cl)noc3C3CC3)C4)sc2c1 [Example 2, 2-((1R,5S,9S)-7-((5-Cyclopropyl-3-(2,6-dichlorophenyl)isoxazol-4-yl)methoxy)-9-hydroxy-3-oxabicyclo[3.3.1]nonan-9-yl)benzo[d]thiazole-6-carboxylic acid] | 175 |
